Test results from US20170240566A1, “AMINO-SUBSTITUTED ANNULATED PYRIMIDINES AND USE THEREOF” (Bayer Pharma Aktiengesellschaft, priority 2014, published 2017).
Where a name gives a salt, the structure may show the parent alone.

Key:
[1] = molecular target: T1, human phosphodiesterase 5 (PDE 5) (Homo sapiens, UniProt O76074); test: Inhibition of human phosphodiesterase 5 (PDE 5); format: biochemical; conditions: PDE 5 preparation from human platelets; in some cases means of individual determinations
T1 construct: PDE 5 preparations are obtained from human platelets by disruption; from tissue; host or cells: human platelets
Method: B-3. Inhibition of human phosphodiesterase 5 (PDE 5)
PDE 5 preparations are obtained from human platelets by disruption (Microfluidizer®, 800 bar, 3 passes), followed by centrifugation (75 000 g, 60 min, 4° C.) and ion exchange chromatography of the supernatant on a Mono Q 10/10 column (linear sodium chloride gradient, elution with a 0.2-0.3M solution of sodium chloride in buffer (20 mM Hepes pH 7.2, 2 mM magnesium chloride). Fractions having PDE 5 activity are combined (PDE 5 preparation) and stored at −80° C.
To determine their in vitro action on human PDE 5, the test substances are dissolved in 100% DMSO and serially diluted. Typically, dilution series (1:3) from 200 μM to 0.091 μM are prepared (resulting final concentrations in the test: 4 μM to 0.0018 μM). In each case 2 μl of the diluted substance solutions are placed into the wells of microtitre plates (Isoplate-96/200W; Perkin Elmer). Subsequently, 50 μl of a dilution of the above-described PDE 5 preparation are added. The dilution of the PDE 5 preparation is chosen such that during the later incubation less than 70% of the substrate are converted (typical dilution: 1:100; dilution buffer: 50 mM tris/hydrochloric acid pH 7.5, 8.3 mM magnesium chloride, 1.7 mM EDTA, 0.2% BSA). The substrate, [8-^3H] cyclic guanosine-3′,5′-monophosphate (1 μCi/μl; Perkin Elmer), is diluted 1:2000 with assay buffer (50 mM tris/hydrochloric acid pH 7.5, 8.3 mM magnesium chloride, 1.7 mM EDTA) to a concentration of 0.0005 μμCi/μl. By addition of 50 μl (0.025 μCi) of the diluted substrate, the enzyme reaction is finally started. The test mixtures are incubated at room temperature for 60 min and the reaction is stopped by adding 25 μl of a suspension of 18 mg/ml yttrium scintillation proximity beads in water (phosphodiesterase beads for SPA assays, RPNQ 0150, Perkin Elmer). The microtitre plates are sealed with a film and left to stand at room temperature for 60 min. Subsequently, the plates are analysed for 30 s per well in a Microbeta scintillation counter (Perkin Elmer). IC50 values are determined using the graphic plot of the substance concentration against percentage PDE 5 inhibition.

[2] = tested on: recombinant guanylate cyclase reporter cell line; test: Effect on a recombinant guanylate cyclase reporter cell line; format: cell-based; conditions: minimum effective concentration; in some cases means of individual determinations; read-out: MEC
Method: B-2. Effect on a Recombinant Guanylate Cyclase Reporter Cell Line
The cellular activity of the compounds of the invention is determined using a recombinant guanylate cyclase reporter cell line, as described in F. Wunder et al., Anal. Biochem. 339, 104-112 (2005). Representative values (MEC=minimum effective concentration) for the compounds of the invention are shown in the table below (Table 1; in some cases as means of individual determinations): […]

Row | Compound | IC50 [1] [nM] | minimal effective concentration [2] [µM]
1 | Cc1nc2c(cc1F)c(-c1nc(NCC(N)(CF)CF)c3c(n1)NC(=O)C3(C)C(F)(F)F)nn2Cc1cccc(F)c1F (single isomer, unassigned; ent-4) [Example 8, ent-4-{[2-Amino-3-fluoro-2-(fluoromethyl)propyl]amino}-2-[1-(2,3-difluorobenzyl)-5-fluoro-6-methyl-1H-pyrazolo[3,4-b]pyridin-3-yl]-5-methyl-5-(trifluoromethyl)-5,7-dihydro-6H-pyrrolo[2,3-d]pyrimidin-6-one (Enantiomer B)] | 120 | 0.1
2 | CC1(C(F)(F)F)C(=O)Nc2nc(-c3nn(Cc4ncccc4F)c4ncc(F)cc34)nc(NCC(N)(CF)CF)c21 (single isomer, unassigned; ent-4) [Example 20, ent-4-{[2-Amino-3-fluoro-2-(fluoromethyl)propyl]amino}-2-{5-fluoro-1-[(3-fluoropyridin-2-yl)methyl]-1H-pyrazolo[3,4-b]pyridin-3-yl}-5-methyl-5-(trifluoromethyl)-5,7-dihydro-6H-pyrrolo[2,3-d]pyrimidin-6-one (Enantiomer B)] | 120 | 0.65
3 | CC1(C)C(=O)Nc2nc(-c3nn(Cc4ccccc4F)c4cc(Cl)ccc34)nc(NCC(N)(CF)CF)c21 [Example 21, 4-{[2-Amino-3-fluoro-2-(fluoromethyl)propyl]amino}-2-[6-chloro-1-(2-fluorobenzyl)-1H-indazol-3-yl]-5,5-dimethyl-5,7-dihydro-6H-pyrrolo[2,3-d]pyrimidin-6-one trifluoroacetate] | – | 0.3
4 | Cc1nc2c(cc1F)c(-c1nc(NCC(N)(CF)CF)c3c(n1)NC(=O)C3(C)C(F)(F)F)nn2Cc1ncccc1F (single isomer, unassigned; ent-4) [Example 17, ent-4-{[2-Amino-3-fluoro-2-(fluoromethyl)propyl]amino}-2-{5-fluoro-1-[(3-fluoropyridin-2-yl)methyl]-6-methyl-1H-pyrazolo[3,4-b]pyridin-3-yl}-5-methyl-5-(trifluoromethyl)-5,7-dihydro-6H-pyrrolo[2,3-d]pyrimidin-6-one (Enantiomer B)] | – | 0.65
5 | Cc1nc2c(cc1F)c(-c1nc(NCC(N)(CF)CF)c3c(n1)NC(=O)C3(C)C)nn2Cc1c(F)ccc(F)c1F [Example 3, 4-{[2-Amino-3-fluoro-2-(fluoromethyl)propyl]amino}-2-[5-fluoro-6-methyl-1-(2,3,6-trifluorobenzyl)-1H-pyrazolo[3,4-b]pyridin-3-yl]-5,5-dimethyl-5,7-dihydro-6H-pyrrolo[2,3-d]pyrimidin-6-one] | 194 | 0.03
6 | Cc1nc2c(cc1F)c(-c1nc(NCC(N)(CF)CF)c3c(n1)NC(=O)C3(C)C(F)(F)F)nn2Cc1c(F)ccc(F)c1F (single isomer, unassigned; ent-4) [Example 13, ent-4-{[2-Amino-3-fluoro-2-(fluoromethyl)propyl]amino}-2-[5-fluoro-6-methyl-1-(2,3,6-trifluorobenzyl)-1H-pyrazolo[3,4-b]pyridin-3-yl]-5-methyl-5-(trifluoromethyl)-5,7-dihydro-6H-pyrrolo[2,3-d]pyrimidin-6-one (Enantiomer A)] | 300 | 0.3
7 | Cc1nc2c(cc1F)c(-c1nc(NCC(N)(CF)CF)c3c(n1)NC(=O)C3(C)C(F)(F)F)nn2Cc1ccccc1F (single isomer, unassigned; ent-4) [Example 10, ent-4-{[2-Amino-3-fluoro-2-(fluoromethyl)propyl]amino}-2-[5-fluoro-1-(2-fluorobenzyl)-6-methyl-1H-pyrazolo[3,4-b]pyridin-3-yl]-5-methyl-5-(trifluoromethyl)-5,7-dihydro-6H-pyrrolo[2,3-d]pyrimidin-6-one (Enantiomer A)] | 290 | 0.2
8 | Cc1nc2c(cc1F)c(-c1nc(NCC(N)(CF)CF)c3c(n1)NC(=O)C3(C)C(F)(F)F)nn2Cc1cccc(F)c1F (single isomer, unassigned; ent-4) [Example 7, ent-4-{[2-Amino-3-fluoro-2-(fluoromethyl)propyl]amino}-2-[1-(2,3-difluorobenzyl)-5-fluoro-6-methyl-1H-pyrazolo[3,4-b]pyridin-3-yl]-5-methyl-5-(trifluoromethyl)-5,7-dihydro-6H-pyrrolo[2,3-d]pyrimidin-6-one (Enantiomer A)] | 120 | 0.3

Further molecules by falling IC50 [1], results first:

Row | IC50 [1] [nM] | Compound | minimal effective concentration [2] [µM]
9 | 100 | Cc1nc2c(cc1F)c(-c1nc(NCC(N)(CF)CF)c3c(n1)NC(=O)C3(C)C(F)(F)F)nn2Cc1ncccc1F (racemic) [Example 15, rac-4-{[2-Amino-3-fluoro-2-(fluoromethyl)propyl]amino}-2-{5-fluoro-1-[(3-fluoropyridin-2-yl)methyl]-6-methyl-1H-pyrazolo[3,4-b]pyridin-3-yl}-5-methyl-5-(trifluoromethyl)-5,7-dihydro-6H-pyrrolo[2,3-d]pyrimidin-6-one] | 0.1
10 | 100 | Cc1nc2c(cc1F)c(-c1nc(NCC(N)(CF)CF)c3c(n1)NC(=O)C3(C)C(F)(F)F)nn2Cc1c(F)ccc(F)c1F (single isomer, unassigned; ent-4) [Example 14, ent-4-{[2-Amino-3-fluoro-2-(fluoromethyl)propyl]amino}-2-[5-fluoro-6-methyl-1-(2,3,6-trifluorobenzyl)-1H-pyrazolo[3,4-b]pyridin-3-yl]-5-methyl-5-(trifluoromethyl)-5,7-dihydro-6H-pyrrolo[2,3-d]pyrimidin-6-one (Enantiomer B)] | 0.1
11 | 100 | CC1(C(F)(F)F)C(=O)Nc2nc(-c3nn(Cc4ncccc4F)c4ncc(F)cc34)nc(NCC(N)(CF)CF)c21 (racemic) [Example 18, rac-4-{[2-Amino-3-fluoro-2-(fluoromethyl)propyl]amino}-2-{5-fluoro-1-[(3-fluoropyridin-2-yl)methyl]-1H-pyrazolo[3,4-b]pyridin-3-yl}-5-methyl-5-(trifluoromethyl)-5,7-dihydro-6H-pyrrolo[2,3-d]pyrimidin-6-one] | 0.1
12 | 57 | Cc1nc2c(cc1F)c(-c1nc(NCC(N)(CF)CF)c3c(n1)NC(=O)C3(C)C(F)(F)F)nn2Cc1ncccc1F (single isomer, unassigned; ent-4) [Example 16, ent-4-{[2-Amino-3-fluoro-2-(fluoromethyl)propyl]amino}-2-{5-fluoro-1-[(3-fluoropyridin-2-yl)methyl]-6-methyl-1H-pyrazolo[3,4-b]pyridin-3-yl}-5-methyl-5-(trifluoromethyl)-5,7-dihydro-6H-pyrrolo[2,3-d]pyrimidin-6-one (Enantiomer A)] | 0.07
13 | 53 | CC1(C(F)(F)F)C(=O)Nc2nc(-c3nn(Cc4ncccc4F)c4ncc(F)cc34)nc(NCC(N)(CF)CF)c21 (single isomer, unassigned; ent-4) [Example 19, ent-4-{[2-Amino-3-fluoro-2-(fluoromethyl)propyl]amino}-2-{5-fluoro-1-[(3-fluoropyridin-2-yl)methyl]-1H-pyrazolo[3,4-b]pyridin-3-yl}-5-methyl-5-(trifluoromethyl)-5,7-dihydro-6H-pyrrolo[2,3-d]pyrimidin-6-one (Enantiomer A)] | 0.07
14 | 32 | Cc1nc2c(cc1F)c(-c1nc(NCC(N)(CF)CF)c3c(n1)NC(=O)C3(C)C(F)(F)F)nn2Cc1cccc(F)c1F (racemic) [Example 6, rac-4-{[2-Amino-3-fluoro-2-(fluoromethyl)propyl]amino}-2-[1-(2,3-difluorobenzyl)-5-fluoro-6-methyl-1H-pyrazolo[3,4-b]pyridin-3-yl]-5-methyl-5-(trifluoromethyl)-5,7-dihydro-6H-pyrrolo[2,3-d]pyrimidin-6-one] | 0.1
